Test results taken from patent US20240368104A1, “Novel Dialkoxynaphtho[2,3-C]Furan-1(3H)-One Derivatives and Pharmaceutical Composition For Preventing or Treating Respiratory Disease or SARS-COV-2 Infection Disease, Comprising Same” (priority 2021, published 2024).
Counter-ions that a name gives are not always drawn. Like-named read-outs stand apart in the source and are kept apart here.

What was measured:
[1] = test system: SARS-COV-2; test: microbe, parasite or virus in culture; type: cell-based; set-up: SI (Selectivity Index, CC50/IC50): unit not given here; conditions: for SI (Selectivity Index, CC50/IC50): SARS-COV-2, values >50 assumed to be 50; for IC50: read-out: SARS-COV-2 inhibition (IC50)
[2] = in vitro; conditions: African green monkey
[3] = Severe acute respiratory syndrome coronavirus 2, Vero, 24 h
[4] = Severe acute respiratory syndrome coronavirus 2, Vero cells, 24 hours infection

SMILES	SI (Selectivity Index, CC50/IC50) [1]	IC50 [1, 3] [µM]	CC50 [2] [µM]	IC50 [1, 4] [µM]
COc1cc2cc3c(c(-c4ccc(N[C@H]5CCc6c(cccc6OC)C5)nc4)c2cc1OC)C(=O)OC3.Cl [Example 172, (S)-6,7-dimethoxy-9-(6-((5-methoxy-1,2,3,4-tetrahydronaphthalen-2-yl)amino)pyridin-3-yl)naphtho[2,3-c]furan-1(3H)-one]	1.0	> 50	> 50	
COc1cc2cc3c(c(-c4ccnc5c(F)cccc45)c2cc1OC)C(=O)OC3 [Example 137, 9-(8-fluoroquinolin-4-yl)-6,7-dimethoxynaphtho[2,3-c]furan-1(3H)-one]	1.0		> 50	> 50
COc1cc2cc3c(c(-c4cc5c(cc4OC(=O)c4ccncc4)OCO5)c2cc1OC)C(=O)OC3 [Example 271, 6-(6,7-dimethoxy-3-oxo-1,3-dihydronaphtho[2,3-c]furan-4-yl)benzo[d][1,3]dioxol-5-yl isonicoinate]	34.41		> 50	1.45
COc1cc2cc3c(c(-c4cnc(/N=C\CN(C)C)cn4)c2cc1OC)C(=O)OC3 [Example 29, (Z)-9-(5-((2-(dimethylamino)ethyliden)amino)pyrazin-2-yl)-6,7-dimethoxynaphtho[2,3-c]furan-1(3H)-one]	1.00		> 50	> 50
CCN(CC)c1ccc(-c2c3c(cc4cc(OC)c(OC)cc24)COC3=O)cn1 [Example 160, 9-(6-(diethylamino)pyridin-3-yl)-6,7-dimethoxynaphtho[2,3-c]furan-1(3H)-one]	60.45		> 50	0.83
CCCN(CC1CC1)c1ncc(-c2c3c(cc4cc(OC)c(OC)cc24)COC3=O)cn1 [Example 105, 9-(2-((cyclopropylmethyl)(propyl)amino)pyrimidin-5-yl)-6,7-dimethoxynaphtho[2,3-c]furan-1(3H)-one hydrochloride]	9.56	5.23	> 50	
COc1cc2cc3c(c(-c4cnc(N5CCC(C)CC5)nc4)c2cc1OC)C(=O)OC3 [Example 107, 6,7-dimethoxy-9-(2-(4-methylpiperidin-1-yl)pyrimidin-5-yl)naphtho[2,3-c]furan-(3H)-one hydrochloride]	35.49		> 50	1.41
COc1cc2cc3c(c(-c4cccc5cccnc45)c2cc1OC)C(=O)OC3 [Example 125, 6,7-dimethoxy-9-(quinolin-8-yl)naphtho[2,3-c]furan-1(3H)-one]	1.0		> 50	> 50
COc1cc2cc3c(c(-c4ccc(N(C)C(=O)C(C)(C)C)nc4)c2cc1OC)C(=O)OC3 [Example 233, N-(5-(6,7-dimethoxy-3-oxo-1,3-dihydronaphtho[2,3-c]furan-4-yl)pyridin-2-yl)-N-methylpivalamide]	1.00		> 50	> 50
COc1cc2cc3c(c(-c4ccc(N5CCOCC5)nn4)c2cc1OC)C(=O)OC3 [Example 219, 6,7-dimethoxy-9-(6-morpholinopyridazin-3-yl)naphtho[2,3-c]furan-1(3H)-one]	1.00		> 50	> 50
CCN(Cc1ccccc1C(F)(F)F)c1ccc(-c2c3c(cc4cc(OC)c(OC)cc24)COC3=O)cn1 [Example 209, 9-(6-(ethyl(2-(trifluoromethyl)benzyl)amino)pyridin-3-yl)-6,7-dimethoxynaphtho[2,3-c]furan-1(3H)-one]	14.52		> 50	3.44
COc1cc2cc3c(c(-c4ccc(N(C)c5ccc(S)cc5)nc4)c2cc1OC)C(=O)OC3.Cl [Example 239, 9-(6-((4-mercaptophenyl)(methyl)amino)pyridin-3-yl)-6,7-dimethoxynaphtho[2,3-c]furan-1(3H)-one]	1.00	> 50	> 50	
COc1cc2cc3c(c(-c4cnc(N5CCC[C@H]5CO)nc4)c2cc1OC)C(=O)OC3.Cl [Example 83, (S)-9-(2-(2-(hydroxymethyl)pyrrolidin-1-yl)pyrimidin-5-yl)-6,7-dimethoxynaphtho[2,3-c]furan-1(3H)-one hydrochloride]	1.65	30.3	> 50	
COc1cc2cc3c(c(-c4ccc(N(C)CCC5OCCO5)nc4)c2cc1OC)C(=O)OC3 [Example 161, 9-(6-((2-(1,3-dioxolan-2-yl)ethyl)(methyl)amino)pyridin-3-yl)-6,7-dimethoxynaphtho[2,3-c]furan-1(3H)-one]	7.74		> 50	6.46
COc1cc2cc3c(c(-c4cnc(N5CCC(N(C)C)CC5)nc4)c2cc1OC)C(=O)OC3 [Example 205, 9-(2-(4-(dimethylamino)piperidin-1-yl)pyrimidin-5-yl)-6,7-dimethoxynaphtho[2,3-c]furan-1(3H)-one]	7.75		> 50	6.46
COc1cc2cc3c(c(-c4ccc(N(C)c5nc(SC)n(C)n5)nc4)c2cc1OC)C(=O)OC3.Cl [Example 215, 6,7-dimethoxy-9-(6-(methyl(1-methyl-5-(methylthio)-1H-1,2,4-triazol-3-yl)amino)pyridin-3-yl)naphtho[2,3-c]furan-1(3H)-one]	2.55	19.6	> 50	
CCCN(CCO)c1ncc(-c2c3c(cc4cc(OC)c(OC)cc24)COC3=O)cn1.Cl [Example 77, 9-(2-((2-hydroxyethyl)(propyl)amino)pyrimidin-5-yl)-6,7-dimethoxynaphtho[2,3-c]furan-1(3H)-one hydrochloride]	1.58	31.6	> 50	
COc1cc2cc3c(c(-c4cnc(N5CCCC(C(=O)O)C5)nc4)c2cc1OC)C(=O)OC3 (stereo not drawn) [Example 60, 1-(5-(6,7-dimethoxy-3-oxo-1,3-dihydronaphtho[2,3-c]furan-4-yl)pyrimidin-2-yl) piperidin-3-carboxylic acid]	1.00		> 50	> 50
COc1cc2cc3c(c(-c4cc5c(cc4OC(=O)C(C)(C)C)OCO5)c2cc1OC)C(=O)OC3 [Example 276, 6-(6,7-dimethoxy-3-oxo-1,3-dihydronaphtho[2,3-c]furan-4-yl)benzo[d][1,3]dioxol-5-yl pivalate]	1.00		> 50	> 50
COc1cc2cc3c(c(-c4ccc(N5CCC6(CC5)OCCO6)nc4)c2cc1OC)C(=O)OC3 [Example 166, 9-(6-(1,4-dioxa-8-azaspiro[4.5]decan-8-yl)pyridin-3-yl)-6,7-dimethoxynaphtho[2,3-c]furan-1(3H)-one]	18.50		> 50	2.7
COc1cc2cc3c(c(-c4cccc5ncccc45)c2cc1OC)C(=O)OC3 [Example 132, 6,7-dimethoxy-9-(quinolin-5-yl)naphtho[2,3-c]furan-1(3H)-one]	1.0		> 50	> 50
CCC(C)CN(C)c1ccc(-c2c3c(cc4cc(OC)c(OC)cc24)COC3=O)cn1.Cl (stereo not drawn) [Example 176, 6,7-dimethoxy-9-(6-(methyl(2-methylbutyl)amino)pyridin-3-yl)naphtho[2,3-c]furan-1(3H)-one]	22.63	2.21	> 50	
COc1cc2cc3c(c(-c4ccc(N(C)C)c([N+](=O)[O-])c4)c2cc1OC)C(=O)OC3.Cl [Example 217, 9-(4-(dimethylamino)-3-nitrophenyl)-6,7-dimethoxynaphtho[2,3-c]furan-1(3H)-one]	10.06	4.97	> 50	
CCCCN(CC)c1ncc(-c2c3c(cc4cc(OC)c(OC)cc24)COC3=O)cn1 [Example 66, 9-(2-(butyl(ethyl)amino)pyrimidin-5-yl)-6,7-dimethoxynaphtho[2,3-c]furan-1(3H)-one]	19.03		> 50	2.63
COc1cc2cc3c(c(-c4cnc(N(C)CCCN5CCOCC5)nc4)c2cc1OC)C(=O)OC3 [Example 112, 6,7-dimethoxy-9-(2-(methyl(3-morpholinopropyl)amino)pyrimidin-5-yl)naphtho[2,3-c]furan-1(3H)-one dihydrochloride]	6.70	7.46	> 50	
CCOP(=O)(OCC)Oc1cc2c(cc1-c1c3c(cc4cc(OC)c(OC)cc14)COC3=O)OCO2 [Example 277, 6-(6,7-dimethoxy-3-oxo-1,3-dihydronaphtho[2,3-c]furan-4-yl)benzo[d][1,3]dioxol-5-yl diethyl phosphate]	1.00	> 50	> 50	
CCN(Cc1cccs1)c1ccc(-c2c3c(cc4cc(OC)c(OC)cc24)COC3=O)cn1 [Example 199, 9-(6-(ethyl(thiophen-2-ylmethyl)amino)pyridin-3-yl)-6,7-dimethoxynaphtho[2,3-c]furan-1(3H)-one]	25.20		> 50	1.98
COc1cc2cc3c(c(-c4ccc(N(C)C(=O)N5CCOCC5)nc4)c2cc1OC)C(=O)OC3 [Example 235, N-(5-(6,7-dimethoxy-3-oxo-1,3-dihydronaphtho[2,3-c]furan-4-yl)pyridin-2-yl)-N-methylmorpholin-4-carboxamide]	1.00		> 50	> 50
COc1cc2cc3c(c(-c4cnc(N)cn4)c2cc1OC)C(=O)OC3 [Example 30, 9-(5-aminopyrazin-2-yl)-6,7-dimethoxynaphtho[2,3-c]furan-1(3H)-one]	1.00		> 50	> 50
